Reference: paper PMC11269933, “MAPK/ERK-PK(Ser11) pathway regulates divergent thermal metabolism of two congeneric oyster species” (iScience, 2024)

Assays:
CgPK [1] = molecular target: T1, CgPK (Magallana gigas, UniProt Z9A5V8HWU5); assay: SPR (BIAcore T200, CM5 chip, anti-His capture), […] Langmuir fit; type: binding; details: PBS-P+ analyte buffer, running buffer HBS-EP+ pH 7.5, recombinant from E. coli
T1 construct: full-length CDS in pET-32a, 6xHis tags at N- and C-ends, expressed in E. coli; captured on CM5 chip by anti-His antibody

CgPK [2] = molecular target: T1, CgPK; assay: as above; type: binding; details: PBS-P+ analyte buffer, running buffer HBS-EP+ pH 7.5, mimics dephosphorylation

SMILES	Kd (CgPK [1]; ADP 1.25-10 uM)	Kd (CgPK [2]; ADP 1.25-10 uM)	Kd (CgPK [1]; PEP 100-1600 nM)	Kd (CgPK [2]; PEP 100-1600 nM)
Nc1ncnc2c1ncn2[C@@H]1O[C@H](COP(=O)(O)OP(=O)(O)O)[C@@H](O)[C@H]1O [ADP]	0.0417 µM	0.0725 µM		
C=C(OP(=O)(O)O)C(=O)O [PEP]			0.00975 µM	0.0934 µM
